Measured values: the kinase profiling compilation of Christmann-Franck et al. (2016)
Values joined by “and” are separate entries in the source; they are usually repeats but may differ in a detail not shown here. Equal entries are not always repeated.

Legend:
Assay in all cases: radiometric filter-binding kinase assay, Kinase HotSpot
Details in all cases: compound 0.5 µM; ATP 10 µM
ABL1 (human) = ABL1 (human) (UniProt P00519)
CAMKK2 (human) = CAMKK2 (human) (UniProt Q96RR4)
LYN (human) = LYN (human) (UniProt P07948)
CAMK2G (human) = CAMK2G (human) (UniProt Q13555)
DYRK3 (human) = DYRK3 (human) (UniProt O43781)
MAP3K8 (human) = MAP3K8 (human) (UniProt P41279)
TAOK2 (human) = TAOK2 (human) (UniProt Q9UL54)
ERBB4 (human) = ERBB4 (human) (UniProt Q15303)
DYRK1B (human) = DYRK1B (human) (UniProt Q9Y463)
MAP2K1 (human) = MAP2K1 (human) (UniProt Q02750)
BMX (human) = BMX (human) (UniProt P51813)
ROS1 (human) = ROS1 (human) (UniProt P08922)
MAP3K9 (human) = MAP3K9 (human) (UniProt P80192)
MAP3K3 (human) = MAP3K3 (human) (UniProt Q99759)
IKBKB (human) = IKBKB (human) (UniProt O14920)
Sequence of IKBKB (human) (O14920 whole entry, looked up): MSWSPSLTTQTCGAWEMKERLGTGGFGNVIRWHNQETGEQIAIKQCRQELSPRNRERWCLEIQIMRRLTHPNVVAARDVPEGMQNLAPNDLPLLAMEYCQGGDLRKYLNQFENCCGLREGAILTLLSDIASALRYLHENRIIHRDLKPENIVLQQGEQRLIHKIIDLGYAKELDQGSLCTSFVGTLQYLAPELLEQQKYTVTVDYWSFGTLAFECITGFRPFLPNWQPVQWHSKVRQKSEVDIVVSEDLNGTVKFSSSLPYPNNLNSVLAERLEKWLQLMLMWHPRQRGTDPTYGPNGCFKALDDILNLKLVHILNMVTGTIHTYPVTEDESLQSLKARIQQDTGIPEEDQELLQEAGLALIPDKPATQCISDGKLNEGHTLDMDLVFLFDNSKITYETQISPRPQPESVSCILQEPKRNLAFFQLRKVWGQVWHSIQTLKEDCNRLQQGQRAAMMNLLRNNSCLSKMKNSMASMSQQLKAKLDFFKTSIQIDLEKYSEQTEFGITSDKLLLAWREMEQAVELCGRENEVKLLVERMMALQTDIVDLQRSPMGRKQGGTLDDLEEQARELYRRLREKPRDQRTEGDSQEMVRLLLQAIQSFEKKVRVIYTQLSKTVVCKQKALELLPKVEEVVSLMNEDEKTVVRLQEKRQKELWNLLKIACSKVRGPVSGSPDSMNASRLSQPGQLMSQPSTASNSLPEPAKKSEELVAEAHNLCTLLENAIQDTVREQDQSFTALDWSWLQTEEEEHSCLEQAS

CSNK2A1 (human) = CSNK2A1 (human) (UniProt P68400)
RPS6KA4 KD2 (human) = RPS6KA4 KD2 (human) (UniProt O75676)
PLK2 (human) = PLK2 (human) (UniProt Q9NYY3)
CDK7 CCNH MNAT1 (human) = CDK7 CCNH MNAT1 (human) (UniProt P50613+P51948+P51946)
TXK (human) = TXK (human) (UniProt P42681)
Sequence of TXK (human) (P42681 whole entry, looked up): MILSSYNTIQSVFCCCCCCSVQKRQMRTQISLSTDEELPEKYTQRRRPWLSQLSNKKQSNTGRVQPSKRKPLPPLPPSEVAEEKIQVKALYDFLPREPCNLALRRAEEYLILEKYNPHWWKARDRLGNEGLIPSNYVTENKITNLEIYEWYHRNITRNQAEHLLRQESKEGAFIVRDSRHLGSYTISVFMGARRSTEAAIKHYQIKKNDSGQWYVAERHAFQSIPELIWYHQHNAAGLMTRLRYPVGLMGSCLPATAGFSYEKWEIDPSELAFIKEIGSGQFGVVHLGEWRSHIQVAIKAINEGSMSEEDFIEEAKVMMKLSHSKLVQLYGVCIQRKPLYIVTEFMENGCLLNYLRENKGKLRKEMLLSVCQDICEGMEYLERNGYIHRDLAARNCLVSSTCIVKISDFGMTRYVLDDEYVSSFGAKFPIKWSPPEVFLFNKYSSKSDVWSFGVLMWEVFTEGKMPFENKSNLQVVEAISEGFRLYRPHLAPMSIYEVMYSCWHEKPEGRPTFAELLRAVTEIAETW

DAPK3 (human) = DAPK3 (human) (UniProt O43293)
PRKD1 (human) = PRKD1 (human) (UniProt Q15139)
MAP3K10 (human) = MAP3K10 (human) (UniProt Q02779)
NTRK3 (human) = NTRK3 (human) (UniProt Q16288)
ADRBK2 (human) = ADRBK2 (human) (UniProt P35626)
ACVR1B (human) = ACVR1B (human) (UniProt P36896)
Sequence of ACVR1B (human) (P36896 whole entry, looked up): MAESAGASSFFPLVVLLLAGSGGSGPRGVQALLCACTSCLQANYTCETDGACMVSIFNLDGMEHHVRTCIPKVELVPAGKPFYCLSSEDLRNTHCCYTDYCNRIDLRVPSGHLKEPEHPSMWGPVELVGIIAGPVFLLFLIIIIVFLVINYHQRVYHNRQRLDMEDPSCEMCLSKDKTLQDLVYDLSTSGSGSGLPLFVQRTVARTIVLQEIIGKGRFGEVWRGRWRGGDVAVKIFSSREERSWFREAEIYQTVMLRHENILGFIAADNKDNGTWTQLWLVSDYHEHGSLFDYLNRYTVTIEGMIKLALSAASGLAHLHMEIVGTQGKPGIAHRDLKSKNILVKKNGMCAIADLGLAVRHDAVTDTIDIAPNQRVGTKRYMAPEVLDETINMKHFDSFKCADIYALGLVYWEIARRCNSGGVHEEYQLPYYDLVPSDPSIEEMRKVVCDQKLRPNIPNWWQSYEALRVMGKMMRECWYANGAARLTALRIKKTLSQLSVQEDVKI

TNK2 (human) = TNK2 (human) (UniProt Q07912)
Sequence of TNK2 (human) (Q07912 whole entry, looked up): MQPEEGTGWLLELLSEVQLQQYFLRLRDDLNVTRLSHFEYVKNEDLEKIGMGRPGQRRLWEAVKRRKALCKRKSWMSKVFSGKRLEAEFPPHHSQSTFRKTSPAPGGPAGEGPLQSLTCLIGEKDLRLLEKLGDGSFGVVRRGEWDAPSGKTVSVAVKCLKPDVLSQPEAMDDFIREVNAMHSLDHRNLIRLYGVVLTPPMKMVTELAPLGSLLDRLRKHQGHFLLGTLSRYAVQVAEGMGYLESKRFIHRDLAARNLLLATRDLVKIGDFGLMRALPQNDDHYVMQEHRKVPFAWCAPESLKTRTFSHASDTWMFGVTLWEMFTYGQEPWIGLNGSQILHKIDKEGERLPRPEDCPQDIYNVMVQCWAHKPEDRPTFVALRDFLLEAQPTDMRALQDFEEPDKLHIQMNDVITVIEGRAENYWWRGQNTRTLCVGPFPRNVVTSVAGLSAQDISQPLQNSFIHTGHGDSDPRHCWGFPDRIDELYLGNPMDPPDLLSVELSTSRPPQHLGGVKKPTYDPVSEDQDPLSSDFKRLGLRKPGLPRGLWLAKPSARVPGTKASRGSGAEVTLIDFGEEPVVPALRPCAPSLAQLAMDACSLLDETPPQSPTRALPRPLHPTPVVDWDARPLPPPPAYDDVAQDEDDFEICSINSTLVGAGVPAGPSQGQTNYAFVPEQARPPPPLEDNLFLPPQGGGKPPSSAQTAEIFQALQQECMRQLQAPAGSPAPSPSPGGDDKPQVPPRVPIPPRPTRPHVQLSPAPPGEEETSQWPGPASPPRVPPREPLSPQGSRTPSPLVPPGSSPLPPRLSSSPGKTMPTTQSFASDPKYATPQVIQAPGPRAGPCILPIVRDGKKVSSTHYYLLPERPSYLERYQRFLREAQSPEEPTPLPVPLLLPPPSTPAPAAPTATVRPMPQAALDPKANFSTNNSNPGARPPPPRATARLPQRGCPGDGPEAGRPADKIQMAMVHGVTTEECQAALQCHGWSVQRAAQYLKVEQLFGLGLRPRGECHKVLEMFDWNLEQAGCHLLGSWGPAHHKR

GSG2 (human) = GSG2 (human) (UniProt Q8TF76)
PNCK (human) = PNCK (human) (UniProt Q6P2M8)
CAMK1G (human) = CAMK1G (human) (UniProt Q96NX5)
RIPK2 (human) = RIPK2 (human) (UniProt O43353)
MARK3 (human) = MARK3 (human) (UniProt P27448)
CSK (human) = CSK (human) (UniProt P41240)
PRKCG (human) = PRKCG (human) (UniProt P05129)
TEK (human) = TEK (human) (UniProt Q02763)
PDGFRA (human) = PDGFRA (human) (UniProt P16234)
Sequence of PDGFRA (human) (P16234 whole entry, looked up): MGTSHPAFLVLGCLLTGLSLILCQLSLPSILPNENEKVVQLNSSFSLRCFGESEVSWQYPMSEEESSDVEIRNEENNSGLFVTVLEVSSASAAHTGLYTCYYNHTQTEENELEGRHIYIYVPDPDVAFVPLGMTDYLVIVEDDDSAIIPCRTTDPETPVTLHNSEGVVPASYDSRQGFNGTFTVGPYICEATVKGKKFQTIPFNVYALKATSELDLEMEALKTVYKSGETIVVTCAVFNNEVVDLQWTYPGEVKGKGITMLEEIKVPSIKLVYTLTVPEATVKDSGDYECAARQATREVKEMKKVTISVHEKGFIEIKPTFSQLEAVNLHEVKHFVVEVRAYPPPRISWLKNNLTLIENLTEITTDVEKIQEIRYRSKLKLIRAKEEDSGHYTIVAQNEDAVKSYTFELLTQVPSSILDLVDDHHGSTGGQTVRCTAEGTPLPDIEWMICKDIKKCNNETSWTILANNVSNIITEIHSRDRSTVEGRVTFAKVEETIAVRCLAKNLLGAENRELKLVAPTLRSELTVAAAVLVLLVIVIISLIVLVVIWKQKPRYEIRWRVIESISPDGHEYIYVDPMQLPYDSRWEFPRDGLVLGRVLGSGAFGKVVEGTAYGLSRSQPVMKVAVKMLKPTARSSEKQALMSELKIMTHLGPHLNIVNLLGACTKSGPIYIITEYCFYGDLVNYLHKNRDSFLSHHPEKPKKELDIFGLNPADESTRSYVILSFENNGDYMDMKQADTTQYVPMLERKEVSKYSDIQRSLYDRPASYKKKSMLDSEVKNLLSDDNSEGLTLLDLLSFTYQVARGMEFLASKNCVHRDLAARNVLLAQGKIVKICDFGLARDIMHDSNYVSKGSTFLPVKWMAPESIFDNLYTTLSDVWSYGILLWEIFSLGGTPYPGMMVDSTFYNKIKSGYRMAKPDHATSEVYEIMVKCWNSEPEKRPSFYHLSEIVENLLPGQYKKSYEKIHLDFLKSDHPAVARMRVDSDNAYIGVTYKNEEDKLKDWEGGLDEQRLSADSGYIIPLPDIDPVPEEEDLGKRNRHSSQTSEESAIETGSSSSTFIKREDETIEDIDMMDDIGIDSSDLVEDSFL

PBK (human) = PBK (human) (UniProt Q96KB5)
Sequence of PBK (human) (Q96KB5 whole entry, looked up): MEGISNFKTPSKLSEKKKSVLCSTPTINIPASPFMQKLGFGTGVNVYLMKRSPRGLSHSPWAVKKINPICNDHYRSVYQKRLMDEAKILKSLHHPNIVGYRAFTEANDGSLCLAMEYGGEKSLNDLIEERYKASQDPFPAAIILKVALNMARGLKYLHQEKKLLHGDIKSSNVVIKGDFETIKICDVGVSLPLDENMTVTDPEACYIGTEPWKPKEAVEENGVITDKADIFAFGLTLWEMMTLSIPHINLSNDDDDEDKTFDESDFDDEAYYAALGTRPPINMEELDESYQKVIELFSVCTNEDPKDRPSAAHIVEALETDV

SRPK2 (human) = SRPK2 (human) (UniProt P78362)
NEK3 (human) = NEK3 (human) (UniProt P51956)
Sequence of NEK3 (human) (P51956 whole entry, looked up): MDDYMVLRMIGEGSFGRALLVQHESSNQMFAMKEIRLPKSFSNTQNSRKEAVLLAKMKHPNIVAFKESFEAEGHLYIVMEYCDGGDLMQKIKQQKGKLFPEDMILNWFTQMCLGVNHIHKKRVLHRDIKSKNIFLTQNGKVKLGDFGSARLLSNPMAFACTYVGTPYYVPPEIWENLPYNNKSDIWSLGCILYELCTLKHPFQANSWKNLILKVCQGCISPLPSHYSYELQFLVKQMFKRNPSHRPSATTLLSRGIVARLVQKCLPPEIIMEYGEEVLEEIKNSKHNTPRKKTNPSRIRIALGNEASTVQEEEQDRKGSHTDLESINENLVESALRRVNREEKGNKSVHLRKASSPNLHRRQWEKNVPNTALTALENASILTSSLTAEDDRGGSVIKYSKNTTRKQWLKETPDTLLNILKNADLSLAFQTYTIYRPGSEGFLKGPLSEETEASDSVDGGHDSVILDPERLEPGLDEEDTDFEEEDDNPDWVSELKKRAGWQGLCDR

EPHA1 (human) = EPHA1 (human) (UniProt P21709)
DDR2 (human) = DDR2 (human) (UniProt Q16832)
RET (human) = RET (human) (UniProt P07949)

COc1ccc2c(c1)/C(=C/c1cnc[nH]1)C(O)=N2
residual activity (ABL1 (human)): 93% | residual activity (CAMKK2 (human)): 89.5% | residual activity (LYN (human)): 88.3% and 98.3% | residual activity (CAMK2G (human)): 94.6% | residual activity (DYRK3 (human)): 98.6% | residual activity (MAP3K8 (human)): 91.1% | residual activity (TAOK2 (human)): 81.8% | residual activity (ERBB4 (human)): 106% | residual activity (DYRK1B (human)): 53.1% | residual activity (MAP2K1 (human)): 94.8% | residual activity (BMX (human)): 100% | residual activity (ROS1 (human)): 91.1% | residual activity (MAP3K9 (human)): 58% | residual activity (MAP3K3 (human)): 84.2% | residual activity (IKBKB (human)): 94.9% | residual activity (CSNK2A1 (human)): 67.8% | residual activity (RPS6KA4 KD2 (human)): 76.9% | residual activity (PLK2 (human)): 95.2% | residual activity (CDK7 CCNH MNAT1 (human)): 84.2% | residual activity (TXK (human)): 93.5% | residual activity (DAPK3 (human)): 101% | residual activity (PRKD1 (human)): 47.9% | residual activity (MAP3K10 (human)): 92.9% | residual activity (NTRK3 (human)): 9.35% | residual activity (ADRBK2 (human)): 101% | residual activity (ACVR1B (human)): 105% | residual activity (TNK2 (human)): 92.6% | residual activity (GSG2 (human)): 72.2% | residual activity (PNCK (human)): 86.3% | residual activity (CAMK1G (human)): 95.6% | residual activity (RIPK2 (human)): 90% | residual activity (MARK3 (human)): 56.2% | residual activity (CSK (human)): 96.1% | residual activity (PRKCG (human)): 95.2% | residual activity (TEK (human)): 98.4% | residual activity (PDGFRA (human)): 94.9% | residual activity (PBK (human)): 124% | residual activity (SRPK2 (human)): 101% | residual activity (NEK3 (human)): 87.8% | residual activity (EPHA1 (human)): 97.3% | residual activity (DDR2 (human)): 95.5%

COc1cc(Nc2c(C#N)cnc3cc(OCCCN4CCN(C)CC4)c(OC)cc23)c(Cl)cc1Cl
residual activity (CAMKK2 (human)): 85.1% | residual activity (LYN (human)): 2.13% and 6% | residual activity (CAMK2G (human)): 131% | residual activity (DYRK3 (human)): 91.8% | residual activity (MAP3K8 (human)): 101% | residual activity (TAOK2 (human)): 65.4% | residual activity (ERBB4 (human)): 1.53% | residual activity (DYRK1B (human)): 97% | residual activity (RET (human)): 18.9% | residual activity (ROS1 (human)): 95.4% | residual activity (MAP3K9 (human)): 16.5% | residual activity (MAP3K3 (human)): 11.8% | residual activity (IKBKB (human)): 95.4% | residual activity (CSNK2A1 (human)): 116% | residual activity (RPS6KA4 KD2 (human)): 101% | residual activity (PLK2 (human)): 100% | residual activity (CDK7 CCNH MNAT1 (human)): 113% | residual activity (TXK (human)): 27.5% | residual activity (DAPK3 (human)): 107% | residual activity (PRKD1 (human)): 43.7% | residual activity (MAP3K10 (human)): 22.9% | residual activity (ADRBK2 (human)): 99.2% | residual activity (ACVR1B (human)): 105% | residual activity (TNK2 (human)): 3.54% | residual activity (GSG2 (human)): 65.6% | residual activity (PNCK (human)): 109% | residual activity (CAMK1G (human)): 82.7% | residual activity (RIPK2 (human)): 111% | residual activity (MARK3 (human)): 65.4% | residual activity (CSK (human)): 12.3% | residual activity (PRKCG (human)): 93.6% | residual activity (TEK (human)): 82.6% | residual activity (PDGFRA (human)): 86.9% | residual activity (PBK (human)): 104% | residual activity (SRPK2 (human)): 101% | residual activity (NEK3 (human)): 85.9% | residual activity (EPHA1 (human)): 97.7% | residual activity (DDR2 (human)): 105%

Fc1ccc(-c2nc3n(c2-c2ccncc2)CCS3)cc1
residual activity (ABL1 (human)): 102% | residual activity (CAMKK2 (human)): 99.9% | residual activity (LYN (human)): 106% and 97.4% | residual activity (CAMK2G (human)): 90.5% | residual activity (DYRK3 (human)): 103% | residual activity (MAP3K8 (human)): 88.1% | residual activity (TAOK2 (human)): 95.7% | residual activity (ERBB4 (human)): 83% | residual activity (DYRK1B (human)): 104% | residual activity (MAP2K1 (human)): 93.6% | residual activity (RET (human)): 99.5% | residual activity (BMX (human)): 104% | residual activity (ROS1 (human)): 95.8% | residual activity (MAP3K9 (human)): 83.6% | residual activity (MAP3K3 (human)): 100% | residual activity (IKBKB (human)): 105% | residual activity (CSNK2A1 (human)): 106% | residual activity (RPS6KA4 KD2 (human)): 88.8% | residual activity (PLK2 (human)): 103% | residual activity (CDK7 CCNH MNAT1 (human)): 95% | residual activity (TXK (human)): 98.9% | residual activity (DAPK3 (human)): 100% | residual activity (PRKD1 (human)): 90.2% | residual activity (MAP3K10 (human)): 101% | residual activity (NTRK3 (human)): 105% | residual activity (ADRBK2 (human)): 95% | residual activity (ACVR1B (human)): 115% | residual activity (TNK2 (human)): 98% | residual activity (GSG2 (human)): 104% | residual activity (PNCK (human)): 90.3% | residual activity (CAMK1G (human)): 95.2% | residual activity (RIPK2 (human)): 84.7% | residual activity (MARK3 (human)): 88.9% | residual activity (TEK (human)): 95.6% | residual activity (PDGFRA (human)): 98% | residual activity (PBK (human)): 100% | residual activity (NEK3 (human)): 96.9% | residual activity (EPHA1 (human)): 98.2% | residual activity (DDR2 (human)): 94.9%
